Measured values as given in patent USRE50563E1, “Use of an all-D-pentapeptide chemokine antagonist to reduce opioid dose in a person with pain” (Creative Bio-Peptides, Inc., priority 2017, dated 2025).
Read-outs that look alike come from different tables or passages of the source.

What was measured:
[1] = tested on: Streptozotocin (STZ) induced diabetic rats
Protocol: (§1) The induction of diabetes was confirmed 72 h after streptozotocin injection by measurement of blood glucose levels using Contour® blood glucose diagnostic kit (Bayer HealthCare, Canada). Body weight and blood glucose levels were measured before and 3 days after streptozotocin injection, once a week for three weeks after diabetes induction. Only rats having blood glucose concentration consistently higher than 300 mg/dl were used for the present study.
(§2) Appropriate concentration for each dose was adjusted accordingly.
Animals were placed in Plexiglas boxes on an elevated metal mesh floor and allowed 60 min for habituation before testing. […] Withdrawal thresholds of both paws were averaged as one single value per animal.
(§3) Assessment on the effects of RAP103 on mechanical and cold allodynia was performed between 2-4 hours following the drug administration.
(§4) All data were presented as means±SEM. Statistical analysis was performed by two-way ANOVA followed by Bonferroni post-tests. The criterion for statistical significance was P<0.05.

[2] = tested on: Streptozotocin (STZ) induced diabetic rats; settings: oral gavage daily, FIGS. 2A-B
Protocol: as §1, §2
Cumulative scores were then obtained by summing the four scores for each rat, the minimum score being 0 (no response to any of the four trials) and the maximum possible score being 12 (repeated flicking and licking of paws on each of the four trials).
as §3, §4

[3] = tested on: cytokines, IL1β, TNFα; chemokines CCL2, CCL3; and chemokines receptors CCR2 and CCR5; settings: 0.5 mg/kg, for 7 days, p.o., FIGS. 3A-F
Protocol: To test the hypothesis, we first used behavioral and molecular/cellular approaches to explore chronic pain development and inflammatory reaction in Streptozotocin (STZ) induced diabetic rats. […] CCL2 and CCL3 are two chemokines well known in mediating immune cell trafficking and immune response in the context of neuropathic pain.
as §1

[4] = tested on: Male, Sprague-Dawley rats; settings: for morphine analgesia in an animal model of post-surgical pain (reversal of mechanical allodynia): RAP-103 0.5 mg/kg i.p. plus morphine 5.0 mg/kg s.c. vs morphine alone, 25 min post-surgery, FIG. 4

all-D-TTNYT [RAP-103]
established hypersensitivity in STZ rats ([1]; 0.5.-0.02 mg/Kg b.w., daily, for 7 days, mechanical and cold allodynia): complete reversal of established hypersensitivity
mechanical allodynia in rats with neuropathic pain ([1]; STZ diabetic rats, oral gavage daily, FIGS. 1A-B): reversed mechanical allodynia
cold allodynia in rats with neuropathic pain [2]: reversed cold allodynia
inflammation in the sciatic nerves of STZ rats (inflammatory mediators) [3]: reducing significantly all examined inflammatory mediators
inflammation in the sciatic nerves of STZ rats (inflammatory mediators) ([3]; listed as RAP103): significantly inhibited inflammation
morphine analgesia in an animal model of post-surgical pain (reversal of mechanical allodynia) [4]: statistically significantly greater analgesia
morphine analgesia in an animal model of post-surgical pain (reversal of mechanical allodynia) ([4]; listed as RAP103): potentiates morphine analgesia
shift to the left of the ED50 for morphine by addition of RAP-103 ([4]; RAP-103 0.5 mg/kg plus morphine 0.5 to 5.0 mg/kg, % reversal of mechanical allodynia at t=60 min, FIG. 5): about 2 fold
